# ChEMBL document CHEMBL4007451, “The 2014 Philip S. Portoghese Medicinal Chemistry Lectureship: The "Phenylalkylaminome" with a Focus on Selected Drugs of Abuse” (J Med Chem, 2017)
# pEC50, pKi: −log10 of the molar value.
# What was measured:
# [1] = biological target: 5-hydroxytryptamine receptor 2A (Homo sapiens, UniProt P28223); test: Displacement of [125I]DOI from recombinant human 5HT2A expressed in Syrian hamster AV12 cell membranes
# [2] = organism: Rattus norvegicus; test: Induction of stimulus generalization in rat trained to discriminate (+)amphetamine assessed as appropriate responding level to training drug by two lever method; format: functional
# [3] = organism: Rattus norvegicus; test: Induction of stimulus generalization in Sprague-Dawley rat trained to discriminate S(-)MCAT assessed as appropriate responding level to training drug by two lever method; format: functional
# [4] = organism: Rattus norvegicus; test: Induction of stimulus generalization in Sprague-Dawley rat trained to discriminate rac-cathinone assessed as appropriate responding level to training drug by two lever method; format: functional
# [5] = organism: Rattus norvegicus; test: Induction of stimulus generalization in Sprague-Dawley rat trained to discriminate S(+)AMPH assessed as appropriate responding level to training drug by two lever method; format: functional
# [6] = Displacement of [3H]ketanserin from rat brain 5HT2 receptor
# [7] = organism: Rattus norvegicus; test: Induction of stimulus generalization in rat trained to discriminate PMMA assessed as appropriate responding level to training drug by two lever method; format: functional; settings: for ED50: Rattus norvegicus
# [8] = organism: Rattus norvegicus; test: Induction of stimulus generalization in rat trained to discriminate MDMA assessed as appropriate responding level to training drug by two lever method; format: functional; settings: for ED50: Rattus norvegicus
# [9] = Activity at NET in rat synaptosomes assessed as release of [3H]NE after 30 mins by liquid scintillation counting method; format: subcellular
# [10] = biological target: T1, 5-hydroxytryptamine receptor 2A (Rattus norvegicus, UniProt P14842); test: Displacement of [3H]DOB from 5HT2A in Sprague-Dawley rat cortex membranes measured after 15 mins by scintillation counting method; format: cell membranes
# T1 sequence (P14842 whole entry): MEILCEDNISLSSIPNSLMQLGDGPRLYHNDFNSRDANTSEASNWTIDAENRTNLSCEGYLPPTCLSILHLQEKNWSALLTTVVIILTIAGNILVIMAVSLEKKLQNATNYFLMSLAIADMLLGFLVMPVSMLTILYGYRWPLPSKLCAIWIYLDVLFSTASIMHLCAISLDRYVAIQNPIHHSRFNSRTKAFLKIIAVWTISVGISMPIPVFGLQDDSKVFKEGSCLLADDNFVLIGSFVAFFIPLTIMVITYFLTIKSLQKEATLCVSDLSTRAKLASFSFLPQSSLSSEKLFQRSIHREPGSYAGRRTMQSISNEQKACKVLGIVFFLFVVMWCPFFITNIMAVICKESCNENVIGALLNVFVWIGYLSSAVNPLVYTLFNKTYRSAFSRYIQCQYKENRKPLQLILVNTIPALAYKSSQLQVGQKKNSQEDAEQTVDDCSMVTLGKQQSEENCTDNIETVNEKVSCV
# [11] = organism: Rattus norvegicus; test: Induction of stimulus generalization in Sprague-Dawley rat trained to discriminate PMMA assessed as appropriate responding level to training drug by two lever method; format: functional
# [12] = organism: Rattus norvegicus; test: Induction of stimulus generalization in Sprague-Dawley rat trained to discriminate MDMA assessed as appropriate responding level to training drug by two lever method; format: functional; settings: for ED50: Rattus norvegicus, Sprague-Dawley
# [13] = organism: Rattus norvegicus; test: Induction of stimulus generalization in Sprague-Dawley rat trained to discriminate alpha-ET assessed as appropriate responding level to training drug by two lever method; format: functional; settings: for ED50: Rattus norvegicus, Sprague-Dawley
# [14] = biological target: Sodium-dependent serotonin transporter (Rattus norvegicus, UniProt P31652); test: Activity at SERT in rat synaptosomes assessed as release of [3H]HT after 5 mins by liquid scintillation counting method; format: subcellular
# Chain of Sodium-dependent serotonin transporter (Rattus norvegicus, UniProt P31652) (P31652 whole entry): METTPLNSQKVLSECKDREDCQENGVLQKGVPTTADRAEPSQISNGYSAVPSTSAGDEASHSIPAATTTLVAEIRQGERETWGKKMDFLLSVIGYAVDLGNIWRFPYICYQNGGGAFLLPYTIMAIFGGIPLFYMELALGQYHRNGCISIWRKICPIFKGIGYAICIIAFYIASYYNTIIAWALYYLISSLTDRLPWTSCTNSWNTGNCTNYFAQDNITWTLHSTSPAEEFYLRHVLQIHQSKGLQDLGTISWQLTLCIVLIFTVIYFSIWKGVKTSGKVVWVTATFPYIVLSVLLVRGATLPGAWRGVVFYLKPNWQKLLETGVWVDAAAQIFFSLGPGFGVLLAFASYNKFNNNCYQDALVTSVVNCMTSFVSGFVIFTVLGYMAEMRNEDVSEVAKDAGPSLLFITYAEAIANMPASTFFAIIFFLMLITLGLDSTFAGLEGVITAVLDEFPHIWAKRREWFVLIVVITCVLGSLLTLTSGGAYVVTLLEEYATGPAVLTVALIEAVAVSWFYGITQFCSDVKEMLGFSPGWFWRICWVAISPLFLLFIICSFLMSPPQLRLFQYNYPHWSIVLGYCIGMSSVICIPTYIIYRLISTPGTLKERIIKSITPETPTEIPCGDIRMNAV
# [15] = biological target: Sodium-dependent dopamine transporter (Rattus norvegicus, UniProt P23977); test: Activity at DAT in rat synaptosomes assessed as release of [3H]DA after 5 mins by liquid scintillation counting method; format: subcellular
# Chain of Sodium-dependent dopamine transporter (Rattus norvegicus, UniProt P23977) (P23977 whole entry): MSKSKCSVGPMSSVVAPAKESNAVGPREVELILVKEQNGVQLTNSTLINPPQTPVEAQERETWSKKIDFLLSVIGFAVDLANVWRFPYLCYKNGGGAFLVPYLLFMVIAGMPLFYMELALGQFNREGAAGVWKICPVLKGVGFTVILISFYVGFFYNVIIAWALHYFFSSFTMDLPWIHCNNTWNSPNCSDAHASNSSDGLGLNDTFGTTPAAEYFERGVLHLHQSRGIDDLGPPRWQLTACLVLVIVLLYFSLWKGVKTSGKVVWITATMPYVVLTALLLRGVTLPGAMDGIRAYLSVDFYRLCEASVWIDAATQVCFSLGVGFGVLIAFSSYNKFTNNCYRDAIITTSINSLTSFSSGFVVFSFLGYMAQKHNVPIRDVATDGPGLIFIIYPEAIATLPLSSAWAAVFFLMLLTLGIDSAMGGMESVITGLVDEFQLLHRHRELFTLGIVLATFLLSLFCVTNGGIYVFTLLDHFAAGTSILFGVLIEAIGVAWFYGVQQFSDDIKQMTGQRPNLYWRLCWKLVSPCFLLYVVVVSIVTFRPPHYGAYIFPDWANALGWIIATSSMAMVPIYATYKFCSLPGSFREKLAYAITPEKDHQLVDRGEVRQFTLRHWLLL
# [16] = organism: Rattus norvegicus; test: Induction of stimulus generalization in Sprague-Dawley rat trained to discriminate AMPH assessed as appropriate responding level to training drug by two lever method; format: functional; settings: for ED50: Rattus norvegicus, Sprague-Dawley
# [17] = organism: Rattus norvegicus; test: Induction of stimulus generalization in Sprague-Dawley rat trained to discriminate DOM assessed as appropriate responding level to training drug by two lever method; format: functional; settings: for ED50: Rattus norvegicus, Sprague-Dawley
# [18] = biological target: T2, 5-hydroxytryptamine receptor 1A (Rattus norvegicus, UniProt P19327); test: Displacement of [3H]-8-OH-DPAT from 5-HT1A receptor in Sprague-Dawley rat cortex membranes after 15 mins by liquid scintillation spectrometric method; format: cell membranes
# T2 sequence (P19327 whole entry): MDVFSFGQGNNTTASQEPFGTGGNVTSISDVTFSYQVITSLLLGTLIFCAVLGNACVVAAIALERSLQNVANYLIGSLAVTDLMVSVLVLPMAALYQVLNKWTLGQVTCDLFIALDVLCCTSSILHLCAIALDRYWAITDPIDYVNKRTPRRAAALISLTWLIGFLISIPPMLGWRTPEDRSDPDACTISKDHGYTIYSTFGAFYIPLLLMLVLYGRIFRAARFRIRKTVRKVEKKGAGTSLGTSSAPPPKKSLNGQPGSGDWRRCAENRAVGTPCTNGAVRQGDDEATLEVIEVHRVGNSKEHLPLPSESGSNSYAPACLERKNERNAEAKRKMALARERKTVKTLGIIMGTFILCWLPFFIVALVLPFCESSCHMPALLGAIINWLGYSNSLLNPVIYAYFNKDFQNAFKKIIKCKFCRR
# [19] = Displacement of [3H]DTG from sigma receptor (unknown origin); set-up: species or system Homo sapiens
# [20] = organism: Rattus norvegicus; test: Induction of stimulus generalization in rat trained to discriminate S(+)methamphetamine assessed as appropriate responding level to training drug by two lever method; format: functional
# [21] = organism: Homo sapiens; test: Selectivity ratio of EC50 for SERT (unknown origin) assessed as release of [3H]HT to EC50 for DAT (unknown origin) by [3H]DA release assay
# [22] = biological target: Sodium-dependent serotonin transporter (Homo sapiens, UniProt P31645); test: Activity at SERT (unknown origin) assessed as release of [3H]HT
# Chain of Sodium-dependent serotonin transporter (Homo sapiens, UniProt P31645) (P31645 whole entry): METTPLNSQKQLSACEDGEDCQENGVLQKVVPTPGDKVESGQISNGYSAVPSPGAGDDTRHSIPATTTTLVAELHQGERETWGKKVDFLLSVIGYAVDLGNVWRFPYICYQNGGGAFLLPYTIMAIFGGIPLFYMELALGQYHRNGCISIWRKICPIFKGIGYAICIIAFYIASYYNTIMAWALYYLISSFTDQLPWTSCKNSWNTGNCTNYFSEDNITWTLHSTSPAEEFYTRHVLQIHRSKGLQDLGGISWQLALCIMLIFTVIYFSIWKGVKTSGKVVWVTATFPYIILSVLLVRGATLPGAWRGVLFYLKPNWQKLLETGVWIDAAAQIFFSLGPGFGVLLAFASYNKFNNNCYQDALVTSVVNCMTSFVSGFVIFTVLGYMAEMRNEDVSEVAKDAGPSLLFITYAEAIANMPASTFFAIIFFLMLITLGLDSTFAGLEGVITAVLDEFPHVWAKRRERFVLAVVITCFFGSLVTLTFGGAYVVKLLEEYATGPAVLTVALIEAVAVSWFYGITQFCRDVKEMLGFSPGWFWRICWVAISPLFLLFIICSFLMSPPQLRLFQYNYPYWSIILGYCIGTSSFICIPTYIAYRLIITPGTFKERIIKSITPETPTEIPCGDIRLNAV
# [23] = biological target: Sodium-dependent dopamine transporter (Homo sapiens, UniProt Q01959); test: Activity at DAT (unknown origin) assessed as release of [3H]DA
# Chain of Sodium-dependent dopamine transporter (Homo sapiens, UniProt Q01959) (Q01959 whole entry): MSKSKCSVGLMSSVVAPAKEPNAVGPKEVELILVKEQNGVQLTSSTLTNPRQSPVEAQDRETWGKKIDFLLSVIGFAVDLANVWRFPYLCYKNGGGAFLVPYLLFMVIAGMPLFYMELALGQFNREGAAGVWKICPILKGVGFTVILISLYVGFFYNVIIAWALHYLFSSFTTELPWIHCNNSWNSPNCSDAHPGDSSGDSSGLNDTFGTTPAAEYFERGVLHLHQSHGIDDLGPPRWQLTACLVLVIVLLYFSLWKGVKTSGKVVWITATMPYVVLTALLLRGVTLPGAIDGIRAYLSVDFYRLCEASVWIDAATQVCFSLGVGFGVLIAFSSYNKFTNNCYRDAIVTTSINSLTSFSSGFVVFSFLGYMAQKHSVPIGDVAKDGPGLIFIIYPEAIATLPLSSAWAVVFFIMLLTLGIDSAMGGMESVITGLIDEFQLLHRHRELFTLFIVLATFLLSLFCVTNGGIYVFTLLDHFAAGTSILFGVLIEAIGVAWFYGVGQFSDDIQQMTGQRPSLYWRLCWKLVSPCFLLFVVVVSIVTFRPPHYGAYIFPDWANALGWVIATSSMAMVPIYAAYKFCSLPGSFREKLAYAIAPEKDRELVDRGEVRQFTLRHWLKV
# [24] = biological target: Sigma non-opioid intracellular receptor 1 (Cavia porcellus, UniProt Q60492); test: Displacement of (+)-[3H]pentazocine from guinea pig brain membrane sigma1 receptor by scintillation spectrometric method
# Chain of Sigma non-opioid intracellular receptor 1 (Q60492 whole entry): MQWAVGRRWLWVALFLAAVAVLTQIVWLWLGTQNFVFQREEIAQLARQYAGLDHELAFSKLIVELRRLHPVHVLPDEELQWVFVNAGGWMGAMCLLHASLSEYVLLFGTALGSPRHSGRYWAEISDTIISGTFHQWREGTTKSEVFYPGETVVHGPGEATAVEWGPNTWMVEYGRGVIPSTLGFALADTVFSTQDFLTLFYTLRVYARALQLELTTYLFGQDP
# [25] = organism: Rattus norvegicus; test: Induction of stimulus generalization in rat trained to discriminate DOM assessed as appropriate responding level to training drug by two lever method; format: functional
# [26] = biological target: T1, 5-hydroxytryptamine receptor 2A; test: Displacement of [125I](+/-)DOI from rat 5HT2A after 1 hr by beta scintillation counting method
# [27] = test system: Mus musculus; test: Anxiolytic-like activity in iv dosed ICR mouse assessed as increase in marbles left uncovered measured after 30 mins by marble burying assay; format: functional; settings: 0.5 h
# Chain of 5-hydroxytryptamine receptor 2A (Homo sapiens, UniProt P28223) (P28223 whole entry): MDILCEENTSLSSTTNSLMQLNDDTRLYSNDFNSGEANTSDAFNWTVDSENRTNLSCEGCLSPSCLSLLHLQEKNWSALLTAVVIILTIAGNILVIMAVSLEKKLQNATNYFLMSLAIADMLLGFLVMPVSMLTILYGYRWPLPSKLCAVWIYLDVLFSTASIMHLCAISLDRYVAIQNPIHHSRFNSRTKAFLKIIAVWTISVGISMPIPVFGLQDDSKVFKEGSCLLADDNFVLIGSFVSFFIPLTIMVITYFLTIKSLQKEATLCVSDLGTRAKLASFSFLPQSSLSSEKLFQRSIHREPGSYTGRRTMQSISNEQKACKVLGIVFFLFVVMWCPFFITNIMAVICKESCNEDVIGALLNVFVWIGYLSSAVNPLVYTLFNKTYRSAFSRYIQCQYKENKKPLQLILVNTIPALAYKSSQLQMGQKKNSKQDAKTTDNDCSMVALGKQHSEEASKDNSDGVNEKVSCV
smiles,measurement,setting,value
CCCNC(C)Cc1cc(OC)c(Br)cc1OC (stereo not given),pKi,[1],7.05
C[C@H](N)C(=O)c1ccccc1 [CATHINONE],ED50,[2],0.32 mg/kg
same,ED50,[3],0.17 mg/kg
same,ED50,[4],0.22 mg/kg
same,ED50,[5],0.34 mg/kg
C[C@@H](N)Cc1c[nH]c2ccccc12,pKi,[6],5.30
COc1ccc(C[C@H](C)N)cc1,Activity,[7],20 - 80%
same,Activity,[8],20 - 80%
CCNC(C)Cc1cccc(C(F)(F)F)c1 (stereo not given) [FENFLURAMINE],pEC50,[9],6.13
COc1cc(CC(C)N)c(OC)cc1I (stereo not given),pKi,[10],9.15
CC[C@H](N)Cc1c[nH]c2ccccc12,ED50,[11],1.4 mg/kg
same,ED50,[12],2 mg/kg
same,pEC50,[9],< 5.00
same,ED50,[13],1.3 mg/kg
same,pEC50,[14],7.70
same,pEC50,[15],7.19
same,Activity,[16],53%
same,ED50,[17],2.7 mg/kg
CN(C)[C@@H]1CCc2cccc(O)c2C1,pKi,[18],7.12
C[C@H](N)Cc1ccccc1 [DEXTROAMPHETAMINE],Activity,[12],20 - 80%
same,ED50,[2],0.62 mg/kg
same,ED50,[3],0.23 mg/kg
same,pEC50,[9],8.15
same,Activity,[13],20 - 80%
same,ED50,[4],0.2 mg/kg
same,pKi,[19],4.34
same,ED50,[20],0.28 mg/kg
same,ED50,[16],0.4 mg/kg
same,ED50,[5],0.44 mg/kg
CNC(C)C(=O)c1ccc(C)cc1 (stereo not given) [MEPHEDRONE],Ratio EC50,[21],2.5
same,pEC50,[22],6.93
same,pEC50,[23],7.31
CC(N)Cc1ccc2c(c1)OCO2 (racemic) [TENAMFETAMINE],pEC50,[9],6.97
same,ED50,[7],0.5 mg/kg
same,pEC50,[14],6.80
same,pEC50,[15],6.72
C[C@@H](Cc1ccccc1)NCCCCCc1ccccc1,pKi,[24],9.05
CN[C@@H](C)Cc1ccccc1 [METHAMPHETAMINE],ED50,[3],0.17 mg/kg
same,ED50,[20],0.06 mg/kg
same,ED50,[5],0.2 mg/kg
C[C@@H](N)C(=O)c1ccccc1,ED50,[2],4.41 mg/kg
same,ED50,[4],0.72 mg/kg
COc1ccc(C[C@@H](C)N)cc1OC,ED50,[7],3 mg/kg
same,ED50,[8],5.4 mg/kg
COc1cc(CC(C)N)c(OC)cc1C (stereo not given) [DOM],ED50,[13],0.4 mg/kg
same,ED50,[25],0.44 mg/kg
same,ED50,[17],0.4 mg/kg
CC[C@@H](N)Cc1c[nH]c2ccccc12,ED50,[11],1.6 mg/kg
same,ED50,[12],1.3 mg/kg
same,pEC50,[9],< 5.00
same,ED50,[13],1.6 mg/kg
same,pEC50,[14],7.17
same,pEC50,[15],6.05
same,ED50,[16],7.8 mg/kg
same,Activity,[17],33%
C=CCN1CC[C@]2(C)c3cc(O)ccc3C[C@H]1[C@H]2C,pKi,[19],6.82
CC(Cc1ccccc1)NCCCCCc1ccccc1 (stereo not given),pKi,[19],8.20
CNC(C)C(=O)c1ccccc1 (stereo not given),Ratio EC50,[21],> 200
same,pEC50,[22],5.41
same,pEC50,[23],7.90
COc1cc([C@@H](OC)[C@H](C)N)c(OC)cc1Br,pKi,[26],9.10
C[C@H](Cc1ccccc1)NCCCCCc1ccccc1,pKi,[24],9.30
CC(N)C(=O)c1ccccc1 (racemic) [DEALKYLATED DIETHYLPROPION],ED50,[2],0.72 mg/kg
C[C@H](N)Cc1ccc2c(c1)OCO2,pEC50,[9],7.30
same,ED50,[7],0.7 mg/kg
same,pEC50,[14],7.00
same,pEC50,[15],7.01
c1ccc(CCCCCN2CCCC(c3ccccc3)C2)cc1 (stereo not given),pKi,[24],9.85
CNC(C)Cc1ccc2c(c1)OCO2 (racemic) [MIDOMAFETAMINE],pEC50,[9],6.96
same,ED50,[7],1.32 mg/kg
same,pEC50,[14],7.14
same,pEC50,[15],6.56
COc1ccc(C[C@@H](C)N)cc1,ED50,[7],0.4 mg/kg
same,Activity,[8],<20%
C=CCN1CCC2(C)c3cc(O)ccc3CC1C2C (racemic),pKi,[19],6.37
COc1cc(OC)c(OC)cc1CC(C)N (stereo not given),pKi,[1],7.24
same,pKi,[10],7.09
CN[C@@H](C)Cc1ccc(OC)cc1,pEC50,[9],6.83
same,ED50,[7],0.3 mg/kg
same,pEC50,[14],7.39
same,pEC50,[15],6.00
CCCCCCN(C)CCc1ccccc1,pKi,[24],7.32
COc1cccc(C[C@H](C)N)c1 [(S)-M-METHOXYAMPHETAMINE],Activity,[7],20 - 80%
same,Activity,[8],<20%
CCCCN(CCCC)[C@@H]1CCc2cccc(O)c2C1,pKi,[18],6.96
CC1CCN(CCCCCc2ccccc2)CC1,pKi,[24],10.15
COc1ccc(C[C@H](C)N)cc1OC,ED50,[7],2.6 mg/kg
same,ED50,[8],6.1 mg/kg
O=C1CC2(CCCC2)CC(=O)N1CCCCN1CCN(c2ncccn2)CC1 [BUSPIRONE],ED50,[27],2.36 mg/kg
COc1cccc(C[C@@H](C)N)c1,Activity,[7],20 - 80%
same,ED50,[8],1.4 mg/kg
CCN(CC)[C@@H]1CCc2cccc(O)c2C1,pKi,[18],8.02
c1ccc(CCCCCN2CCCCC2Cc2ccccc2)cc1 (stereo not given),pKi,[24],10.10
COc1ccc(OC)c(CC(C)N)c1 (stereo not given),pKi,[10],6.57
CCC(N)Cc1c[nH]c2ccccc12 (racemic) [ETRYPTAMINE],ED50,[12],3.5 mg/kg
same,ED50,[13],1.3 mg/kg
same,ED50,[25],6.6 mg/kg
same,Activity,[16],20 - 80%
same,ED50,[17],6.6 mg/kg
C[C@@H](N)Cc1ccc2c(c1)OCO2,pEC50,[9],6.54
same,ED50,[7],1.5 mg/kg
same,pEC50,[14],6.51
same,pEC50,[15],6.05
CN[C@@H](C)C(=O)c1ccccc1,ED50,[3],0.11 mg/kg
same,pEC50,[9],7.88
same,ED50,[20],0.21 mg/kg
same,pEC50,[14],5.75
same,pEC50,[15],7.83
same,ED50,[5],0.18 mg/kg
CNC(C)C(=O)c1ccc(C(F)(F)F)cc1 (stereo not given),Ratio EC50,[21],14
same,pEC50,[22],6.72
same,pEC50,[23],5.57
C[C@H](N)[C@@H](O)c1ccccc1 [CATHINE],ED50,[4],1.61 mg/kg
CN1C(=O)CN=C(c2ccccc2)c2cc(Cl)ccc21 [DIAZEPAM],ED50,[27],0.26 mg/kg
CNC(C)Cc1ccc(OC)cc1 (stereo not given),ED50,[11],0.4 mg/kg
same,ED50,[12],0.2 mg/kg
same,ED50,[13],0.7 mg/kg
CC(N)Cc1c[nH]c2ccccc12 (stereo not given),ED50,[25],3.1 mg/kg
same,pKi,[6],5.51
C[C@H](N)Cc1c[nH]c2ccccc12,ED50,[25],1.64 mg/kg
same,pKi,[6],5.60
CN[C@H](C)Cc1ccc(OC)cc1,pEC50,[9],< 4.85
same,pEC50,[14],6.87
same,pEC50,[15],5.80
c1ccc(CCCCCN2CCCCC2)cc1,pKi,[24],9.42
